Calls of active or inactive are those of the source.
Key:
[1] = molecular target: Intestinal-type alkaline phosphatase (Homo sapiens, UniProt P09923); test: activation of human intestinal alkaline phosphatase – biochemical, dose response (AID 488873); assay type: functional
[2] = molecular target: FAD-linked sulfhydryl oxidase ALR (Homo sapiens, UniProt P55789); test: inhibitors of human ALR sulfhydryl oxidase, dose response, biochemical, H2O2 detection, luminescence, cherry-pick (AID 493248)
[3] = molecular target: T1, Alkaline phosphatase, tissue-nonspecific isozyme (Homo sapiens, UniProt P05186); test: TNAP enzyme inhibition by screening hits, dose response, selectivity assay for mouse IAP inhibitor project, biochemical, human TNAP, uHTS hits (AID 488906); assay type: functional
T1 sequence (P05186 whole entry): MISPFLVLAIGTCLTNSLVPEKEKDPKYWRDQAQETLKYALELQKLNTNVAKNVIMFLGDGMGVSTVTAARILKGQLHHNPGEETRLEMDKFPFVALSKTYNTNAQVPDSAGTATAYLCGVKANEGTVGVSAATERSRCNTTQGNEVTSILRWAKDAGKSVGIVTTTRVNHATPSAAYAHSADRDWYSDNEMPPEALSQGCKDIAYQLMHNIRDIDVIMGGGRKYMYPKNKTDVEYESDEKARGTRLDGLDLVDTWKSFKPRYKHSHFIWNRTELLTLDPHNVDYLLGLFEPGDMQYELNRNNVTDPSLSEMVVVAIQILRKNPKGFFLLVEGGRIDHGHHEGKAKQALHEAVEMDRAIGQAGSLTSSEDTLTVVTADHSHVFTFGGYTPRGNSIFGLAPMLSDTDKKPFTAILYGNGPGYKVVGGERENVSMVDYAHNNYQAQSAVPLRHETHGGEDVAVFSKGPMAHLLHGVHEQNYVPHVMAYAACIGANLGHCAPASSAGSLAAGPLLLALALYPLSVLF

[4] = molecular target: Intestinal-type alkaline phosphatase (Mus musculus, UniProt P24822); test: PubChem AID 488785; assay type: functional
[5] = cytotoxicity in HEK-293T cells, dose response, cytotoxicity control for BCR NF-kB inhibitor project, luminescence, B-cell screen hits (AID 489021); assay type: functional, cell-based;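 further: HEK-293T cells carrying an NF-kB luciferase reporter; cells exposed to compound for about 14 hours before viability readout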
[6] = luciferase reporter signal reduction – luminescence, H4-C neuroglioblastoma cells, dose response (AID 2458); assay type: functional, cell-based;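 further: H4 neuroglioblastoma cells stably carrying a luciferase reporter gene fusion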
INS1 = test: beta cell apoptosis inhibitors, cytokine rescue, dose response, luminescence, retest (AID 449756); assay type: functional, cell-based; details: Rattus norvegicus;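 further: cell death triggered by IL-1 beta plus TNF-alpha plus IFN-gamma mixture; protective hits raise ATP signal compared with cytokine alone wells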
[7] = molecular target: Heat shock protein HSP 90-alpha (Homo sapiens, UniProt P07900); assay type: functional, organism-based
Vero = test: cells; assay type: functional; details: Chlorocebus sabaeus
cells = assay type: functional, cell-based
[8] = inhibitors of firefly luciferase expression or activity, dose response, H4 neuroglioma cells, luminescence (AID 1990); assay type: functional, cell-based
Beta-galactosidase = Beta-galactosidase (Escherichia coli, UniProt Q8VNN2); assay type: functional
[9] = molecular target: T2, Kappa-type opioid receptor (Homo sapiens, UniProt P41145); assay type: functional
[10] = Luminescence Cell-Based Dose Response HTS to Identify Inhibitors of 5'UTR Stem-Loop Driven Prion Protein mRNA Translation in H4 Neuroglioblastoma Cells. [Related pubchem assays: 1827 (Project Summary), 1813 (Primary HTS)]; assay type: functional
[11] = inhibitors of SNCA 5'UTR-driven translation, confirmation, luminescence, H4 neuroglioblastoma cells, dose confirmation (AID 2454); assay type: functional, cell-based;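 further: H4 neuroglioblastoma cells carrying an alpha-synuclein 5'UTR luciferase reporter; potency for inhibition of the luciferase signal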
[12] = inhibitors of SNCA 5'UTR-driven reporter translation, confirmation, H4 neuroglioma cells, luminescence (AID 1988); assay type: functional, cell-based
[13] = molecular target: T2, Kappa-type opioid receptor; assay type: functional; remark: listed apart in the source
[14] = system: Streptococcus sp. 'group A'; test: growth inhibition of control SK(-) GAS strain, dose response, counter-screen for streptokinase expression inhibitor project, luminescence, kanamycin, BacTiterGlo, confirmation (AID 1900); assay type: functional, organism-based
Streptococcus = test: Group A Streptococcus viability loss, dose response, counter-screen for streptokinase expression inhibitor project, luminescence, BacTiterGlo (AID 1915); assay type: functional, organism-based;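 further: potency for reduction of bacterial viability or growth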
[15] = molecular target: T3, Type-1 angiotensin II receptor (Homo sapiens, UniProt P30556); test: AT1 receptor agonists, dose response, selectivity assay for APJ receptor agonist project, cell-based, uHTS hits (AID 488865); assay type: functional;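 further: beta-arrestin recruitment to AT1 measured by enzyme fragment complementation luminescence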
T3 sequence (P30556 whole entry): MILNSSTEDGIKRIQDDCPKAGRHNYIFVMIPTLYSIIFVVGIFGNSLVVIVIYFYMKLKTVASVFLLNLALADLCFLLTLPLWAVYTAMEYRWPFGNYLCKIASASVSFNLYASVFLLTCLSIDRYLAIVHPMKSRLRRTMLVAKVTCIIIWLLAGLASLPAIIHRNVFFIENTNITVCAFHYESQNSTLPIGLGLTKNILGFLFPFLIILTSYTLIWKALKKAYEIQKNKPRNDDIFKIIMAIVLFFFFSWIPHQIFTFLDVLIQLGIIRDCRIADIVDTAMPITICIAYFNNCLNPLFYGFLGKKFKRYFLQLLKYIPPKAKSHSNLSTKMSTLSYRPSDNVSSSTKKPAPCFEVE

[16] = molecular target: Lysosomal acid glucosylceramidase (Homo sapiens, UniProt P04062); test: Dose response cell-based high throughput screening assay to identify enhancers of beta-glucosidase activity. [Related pubchem assays: 784 ]; assay type: functional
Cannabinoid receptor 2 [17] = molecular target: T4, Cannabinoid receptor 2 (Homo sapiens, UniProt P34972); test: SAR analysis of antagonists of the Cannabinoid Receptor 2 using an Image-Based Assay - Set 2. [Related pubchem assays (depositor defined):AID1961, AID1965]; assay type: functional
Cannabinoid receptor 1 = Cannabinoid receptor 1 (Homo sapiens, UniProt P21554); test: SAR analysis of antagonists of the Cannabinoid Receptor 1 using an Image-Based Assay. [Related pubchem assays (depositor defined):AID1961, AID1965]; assay type: functional
Cannabinoid receptor 2 [18] = molecular target: T4, Cannabinoid receptor 2; test: SAR analysis of agonists of the Cannabinoid Receptor 2 using an Image-Based Assay - Set 2. [Related pubchem assays (depositor defined):AID1961, AID1965]; assay type: functional
[19] = molecular target: T5, G-protein coupled receptor 55 (Homo sapiens, UniProt Q9Y2T6); test: SAR analysis of selective Agonists of GPR55 using an Image-Based Assay. [Related pubchem assays (depositor defined):AID1961, AID1965]; assay type: functional
[20] = molecular target: T5, G-protein coupled receptor 55; test: GPR55 agonists via beta-arrestin recruitment, primary screen, imaging, U2OS cells, beta-arrestin-GFP redistribution (AID 1961); assay type: functional
Hexokinase = Hexokinase (Trypanosoma brucei, UniProt Q38C41); test: Confirmation assay for inhibitors of Trypanosoma brucei hexokinase 1-Analogue-first series. [Related pubchem assays (depositor defined):AID1430, AID1632, AID2516, AID2560, AID2579, AID2600, AID449725, AID492951]; assay type: functional
Chain of Hexokinase (Q38C41 whole entry): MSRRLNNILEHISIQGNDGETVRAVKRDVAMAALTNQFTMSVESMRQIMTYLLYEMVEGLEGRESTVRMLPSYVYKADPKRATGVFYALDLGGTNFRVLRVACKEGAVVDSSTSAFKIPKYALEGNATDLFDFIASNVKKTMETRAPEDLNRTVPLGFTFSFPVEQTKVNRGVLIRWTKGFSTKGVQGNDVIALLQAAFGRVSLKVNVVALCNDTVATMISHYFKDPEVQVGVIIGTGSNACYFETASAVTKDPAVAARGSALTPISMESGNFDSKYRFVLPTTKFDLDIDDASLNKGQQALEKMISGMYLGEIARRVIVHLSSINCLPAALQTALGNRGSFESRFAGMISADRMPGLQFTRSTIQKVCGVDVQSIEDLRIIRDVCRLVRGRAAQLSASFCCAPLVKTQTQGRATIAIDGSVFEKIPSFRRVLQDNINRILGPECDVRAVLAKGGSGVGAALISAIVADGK

T5 sequence (Q9Y2T6 whole entry): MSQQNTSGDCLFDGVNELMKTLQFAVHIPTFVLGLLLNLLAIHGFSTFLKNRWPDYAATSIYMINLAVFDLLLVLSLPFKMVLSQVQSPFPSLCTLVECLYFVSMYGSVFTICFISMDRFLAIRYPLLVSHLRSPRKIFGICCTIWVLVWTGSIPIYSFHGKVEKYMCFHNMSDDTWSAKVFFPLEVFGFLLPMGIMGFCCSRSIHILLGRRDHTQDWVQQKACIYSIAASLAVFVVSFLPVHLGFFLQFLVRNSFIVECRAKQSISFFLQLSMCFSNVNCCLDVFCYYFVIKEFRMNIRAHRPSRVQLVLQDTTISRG
T4 sequence (P34972 whole entry): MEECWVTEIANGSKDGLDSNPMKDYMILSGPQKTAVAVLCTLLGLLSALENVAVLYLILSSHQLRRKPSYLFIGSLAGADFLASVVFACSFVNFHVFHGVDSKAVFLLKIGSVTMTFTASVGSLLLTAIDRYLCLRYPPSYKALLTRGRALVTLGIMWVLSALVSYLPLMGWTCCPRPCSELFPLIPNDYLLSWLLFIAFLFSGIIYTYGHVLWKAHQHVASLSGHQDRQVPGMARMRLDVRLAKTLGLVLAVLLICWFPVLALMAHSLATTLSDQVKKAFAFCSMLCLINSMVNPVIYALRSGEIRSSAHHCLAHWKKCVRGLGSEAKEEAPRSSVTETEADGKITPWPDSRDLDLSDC
T2 sequence (P41145 whole entry): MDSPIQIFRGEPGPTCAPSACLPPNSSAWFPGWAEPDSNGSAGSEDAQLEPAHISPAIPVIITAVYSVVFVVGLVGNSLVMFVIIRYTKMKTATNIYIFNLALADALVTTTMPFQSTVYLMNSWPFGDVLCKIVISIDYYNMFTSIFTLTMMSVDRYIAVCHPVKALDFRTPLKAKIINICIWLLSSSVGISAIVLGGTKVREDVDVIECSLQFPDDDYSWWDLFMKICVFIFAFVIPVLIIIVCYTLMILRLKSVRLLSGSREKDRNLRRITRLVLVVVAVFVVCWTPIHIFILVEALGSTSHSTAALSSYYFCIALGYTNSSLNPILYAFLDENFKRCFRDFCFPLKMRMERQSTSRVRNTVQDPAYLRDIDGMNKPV
Chain of Lysosomal acid glucosylceramidase (P04062 whole entry): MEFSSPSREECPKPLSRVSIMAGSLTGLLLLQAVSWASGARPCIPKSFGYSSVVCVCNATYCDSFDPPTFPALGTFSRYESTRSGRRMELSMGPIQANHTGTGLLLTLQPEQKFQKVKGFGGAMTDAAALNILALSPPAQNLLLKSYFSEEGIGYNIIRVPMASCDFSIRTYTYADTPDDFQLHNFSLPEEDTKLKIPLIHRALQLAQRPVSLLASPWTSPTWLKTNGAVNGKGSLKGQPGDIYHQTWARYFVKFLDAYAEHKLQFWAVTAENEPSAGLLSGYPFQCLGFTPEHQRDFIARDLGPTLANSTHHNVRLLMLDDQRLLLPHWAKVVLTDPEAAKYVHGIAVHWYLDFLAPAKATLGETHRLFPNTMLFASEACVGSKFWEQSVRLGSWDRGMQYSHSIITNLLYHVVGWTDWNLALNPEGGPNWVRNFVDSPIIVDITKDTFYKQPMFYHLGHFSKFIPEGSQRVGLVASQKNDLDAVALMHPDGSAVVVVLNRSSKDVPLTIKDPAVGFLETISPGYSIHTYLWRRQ
Chain of Beta-galactosidase (Q8VNN2 whole entry): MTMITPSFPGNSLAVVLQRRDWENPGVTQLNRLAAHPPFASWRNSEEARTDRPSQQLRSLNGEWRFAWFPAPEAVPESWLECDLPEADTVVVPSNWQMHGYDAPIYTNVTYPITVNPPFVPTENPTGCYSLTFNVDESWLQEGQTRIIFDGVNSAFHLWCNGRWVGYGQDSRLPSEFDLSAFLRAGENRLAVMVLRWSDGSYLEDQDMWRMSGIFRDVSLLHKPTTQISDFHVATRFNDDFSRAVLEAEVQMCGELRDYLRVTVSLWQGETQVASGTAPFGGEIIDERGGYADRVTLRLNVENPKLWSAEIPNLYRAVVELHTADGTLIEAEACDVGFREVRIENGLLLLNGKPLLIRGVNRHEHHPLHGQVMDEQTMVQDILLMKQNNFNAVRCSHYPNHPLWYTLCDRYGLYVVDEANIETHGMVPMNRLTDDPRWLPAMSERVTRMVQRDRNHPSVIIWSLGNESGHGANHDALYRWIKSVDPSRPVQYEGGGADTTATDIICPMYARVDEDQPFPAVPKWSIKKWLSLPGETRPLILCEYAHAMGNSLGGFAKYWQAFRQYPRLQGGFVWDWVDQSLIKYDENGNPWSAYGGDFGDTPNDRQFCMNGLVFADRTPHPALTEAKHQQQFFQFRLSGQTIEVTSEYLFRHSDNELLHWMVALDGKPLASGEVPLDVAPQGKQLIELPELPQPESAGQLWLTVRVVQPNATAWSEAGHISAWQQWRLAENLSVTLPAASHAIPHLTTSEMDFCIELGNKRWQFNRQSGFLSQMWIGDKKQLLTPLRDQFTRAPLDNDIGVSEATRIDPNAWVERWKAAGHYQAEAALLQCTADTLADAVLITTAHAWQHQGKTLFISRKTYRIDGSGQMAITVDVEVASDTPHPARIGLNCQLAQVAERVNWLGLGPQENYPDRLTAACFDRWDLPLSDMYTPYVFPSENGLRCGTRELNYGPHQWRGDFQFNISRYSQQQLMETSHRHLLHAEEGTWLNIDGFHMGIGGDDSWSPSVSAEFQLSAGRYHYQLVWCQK
Chain of FAD-linked sulfhydryl oxidase ALR (P55789 whole entry): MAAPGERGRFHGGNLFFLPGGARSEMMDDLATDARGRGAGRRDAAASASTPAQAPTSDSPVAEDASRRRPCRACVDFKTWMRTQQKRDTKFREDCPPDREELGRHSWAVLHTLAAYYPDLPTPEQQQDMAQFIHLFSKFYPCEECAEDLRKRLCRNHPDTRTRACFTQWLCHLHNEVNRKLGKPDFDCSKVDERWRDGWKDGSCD
Chain of Intestinal-type alkaline phosphatase (Mus musculus, UniProt P24822) (P24822 whole entry): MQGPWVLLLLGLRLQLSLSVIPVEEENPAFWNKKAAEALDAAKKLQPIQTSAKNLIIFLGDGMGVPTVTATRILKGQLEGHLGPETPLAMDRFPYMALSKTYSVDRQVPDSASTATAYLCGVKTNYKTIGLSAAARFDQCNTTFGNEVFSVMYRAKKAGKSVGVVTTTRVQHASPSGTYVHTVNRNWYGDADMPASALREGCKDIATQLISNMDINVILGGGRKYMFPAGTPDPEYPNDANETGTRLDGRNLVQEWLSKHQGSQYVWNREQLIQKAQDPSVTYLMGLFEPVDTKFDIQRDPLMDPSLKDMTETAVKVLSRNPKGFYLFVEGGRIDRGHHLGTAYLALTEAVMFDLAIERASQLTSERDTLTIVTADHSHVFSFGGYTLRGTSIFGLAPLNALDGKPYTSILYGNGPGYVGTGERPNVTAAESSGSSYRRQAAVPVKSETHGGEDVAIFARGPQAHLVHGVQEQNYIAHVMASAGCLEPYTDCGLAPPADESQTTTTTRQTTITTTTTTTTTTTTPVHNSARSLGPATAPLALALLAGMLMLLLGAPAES
Chain of Cannabinoid receptor 1 (P21554 whole entry): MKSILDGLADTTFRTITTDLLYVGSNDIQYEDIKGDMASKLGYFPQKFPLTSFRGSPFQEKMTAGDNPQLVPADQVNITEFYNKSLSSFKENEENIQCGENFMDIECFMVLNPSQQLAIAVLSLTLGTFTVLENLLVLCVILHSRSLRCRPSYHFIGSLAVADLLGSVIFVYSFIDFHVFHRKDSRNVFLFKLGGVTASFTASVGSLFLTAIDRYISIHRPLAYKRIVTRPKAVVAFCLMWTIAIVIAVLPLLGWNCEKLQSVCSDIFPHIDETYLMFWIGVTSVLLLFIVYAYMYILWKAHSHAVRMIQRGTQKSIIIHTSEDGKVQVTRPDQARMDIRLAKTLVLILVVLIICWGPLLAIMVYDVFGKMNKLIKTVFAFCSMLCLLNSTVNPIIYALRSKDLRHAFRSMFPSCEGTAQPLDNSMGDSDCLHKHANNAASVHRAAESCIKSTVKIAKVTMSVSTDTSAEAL
Chain of Intestinal-type alkaline phosphatase (Homo sapiens, UniProt P09923) (P09923 whole entry): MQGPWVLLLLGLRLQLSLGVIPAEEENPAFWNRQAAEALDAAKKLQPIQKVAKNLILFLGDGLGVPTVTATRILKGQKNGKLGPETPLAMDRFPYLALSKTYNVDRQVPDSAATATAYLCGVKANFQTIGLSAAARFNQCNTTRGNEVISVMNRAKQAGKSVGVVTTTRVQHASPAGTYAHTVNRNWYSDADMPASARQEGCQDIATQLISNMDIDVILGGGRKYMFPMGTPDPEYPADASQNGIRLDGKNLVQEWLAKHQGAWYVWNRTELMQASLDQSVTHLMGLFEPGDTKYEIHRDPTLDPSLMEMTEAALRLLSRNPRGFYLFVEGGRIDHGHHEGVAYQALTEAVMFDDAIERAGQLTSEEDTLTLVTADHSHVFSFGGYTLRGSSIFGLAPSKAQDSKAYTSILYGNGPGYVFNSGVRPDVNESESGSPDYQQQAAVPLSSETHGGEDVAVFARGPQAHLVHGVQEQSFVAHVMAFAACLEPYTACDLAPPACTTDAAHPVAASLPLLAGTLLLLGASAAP

Cc1ccc(C)c(S(=O)(=O)Nc2ccc(O)c(Sc3nnc[nH]3)c2)c1
EC50 [1]: 11.9 µM (active)
AC50 [2]: 2.05 µM (active)
IC50 [3]: 5.46 µM (active)
IC50 [4]: 2.75 µM (active)

COc1ccc(-c2nn(C)c(=O)c3ccccc23)cc1NS(C)(=O)=O
IC50 [5]: > 80 µM (inactive)

COc1ccc(N=Nc2ccc(O)c3ncccc23)cc1
EC50 [6]: > 12 µM (not active)
AC50 (INS1): 1.16 µM (active)
AC50 [7]: 3.34 µM (active)
CC50 (Vero): 6.3 µM (active)
EC50 (cells): 1.65 µM (active)
EC50 [8]: 8.21 µM (active)
EC50 (Beta-galactosidase): 24.6 µM (active)
IC50 [9]: 5.64 µM (active)
EC50 [10]: 6.71 µM (active)
EC50 [11]: > 12 µM (not active)
EC50 [12]: < 0.1 µM (active)
IC50 [13]: > 32 µM
EC50 [14]: 0.191 µM (active)
EC50 (Streptococcus): 2.5 µM (active)

O=C(Cn1ncc2c3ccccc3nc-2c1O)Nc1ccc(CN2CCCCC2)cc1
EC50 [15]: > 100 µM (inactive)

CCCc1cc(O)nc(SCC(=O)CSc2nc(O)cc(CCC)n2)n1
EC50 [16]: > 50 µM (not active)

COc1cc2c(cc1NC(=O)CSc1ccccc1)oc1ccccc12
IC50 (Cannabinoid receptor 2 [17]): > 32 µM (inactive)
IC50 (Cannabinoid receptor 1): > 32 µM (inactive)
EC50 (Cannabinoid receptor 2 [18]): > 32 µM (inactive)
EC50 [19]: 0.627 µM (active)
EC50 [20]: 0.671 µM (active)

CCc1ccc(C(=O)Nc2cc(Cl)ccc2C(=O)OC)cc1
IC50 (Hexokinase): > 25 µM (inactive)
